Reference: patent US20110201620A1, “2-(3-AMINOARYL) AMINO-4-ARYL-THIAZOLES AND THEIR USE AS C-KIT INHIBITORS” (AB SCIENCE, priority 2002, published 2011)
“And” between values parts separate entries of the source, which are not always exact repeats. Identical values can stand only once.

How the values were obtained:
[1] = test system: locally advanced or metastatic, c-Kit positive GIST; assay: Phase 2 clinical trial in advanced GIST, efficacy (RECIST, FDG-PET, PFS, OS); format: in vivo, human
Text: Methods; Patients: Patients enrolled in this study were aged over 18 years with inoperable, non-pretreated, histologically proven locally advanced or metastatic, c-Kit positive GIST. […] Exclusion criteria included: inadequate organ function defined via blood tests, severe liver or cardiac failure, and severe neurological or psychiatric disorders. Patients receiving a concomitant treatment within 4 weeks before inclusion, and pregnant or lactating women were also excluded. […] Time-to-event analyses were calculated from the date of first masitinib intake to the date of event (documented progression or death). Patients who had not progressed at the date of last tumor assessment were censored at that date for PFS. Patients alive at the time of the analysis were censored at the date of last contact for OS. Methods; Statistical analyses: Simon […] two-stage design was used for this prospective, multicenter, single-group, phase II trial. Fourteen patients were initially enrolled, with recruitment of an additional ten patients being dependent on the occurrence of at least one objective RECIST response. This population was further extended to a total of 30 patients to ensure a sufficient evaluable population for all end-points; the type I(α) error was 5% (two-sided) for all analyses. Quantitative variables were described by the number of filled and missing data, mean, standard deviation, median, minimum and maximum Qualitative variables were described by the number of missing data and, for each modality, frequency and percentage (referring to filled data). Time-to-event data were described using Kaplan-Meier (KM) estimates. The median was provided with its 95% confidence interval (95% CI). PFS rates were given every 6 months with KM estimates. All data analyses and reporting procedures used SAS v9.1 in a Windows XP operating system environment.

[2] = test system: imatinib-resistant HMC-1 α155 cells; assay: Apoptosis assay by propidium iodide staining; format: cell-based, human; conditions: 1 μM
Protocol: HMC-1 is a human mast cell line derived from a patient with mast cell leukaemia. The cell line used in this study, HMC-1 α155, is a clone derived from the original population expressing endogenous Kit bearing the mutation Val 560 to Gly. […] The medium used in this case was a RPMI medium containing L-glutamine (Cambrex cat# 12-702F) supplemented with 100 U/mL penicillin and 100 μg/mL streptomycin (Cambrex 100X penicilline/streptomycine mixture cat #17-602E), and with 10% v/v foetal calf serum (AbCys Lot S02823S1800) which has been previously heat-inactivated 30 minutes at 56° C. (RPMI 10). The medium containing the drugs was replaced with fresh one every 3-4 days. […] The principle behind the method for apoptosis assay by Propidium Iodide Staining (PI staining) is as follows: during apoptosis, DNA breakup causes small fragments of DNA to be free in the nucleus. Following appropriate elution with citrate buffer, these fragments are lost from the nucleus. As these cells now have a lower DNA content, subsequent staining with a DNA binding dye will reveal these cells in the sub-G1 region.
The % apoptosis represents the percentage of cells in apoptose with respect to overall cells.

Human Kit exon 9 = conditions: read-out: Cell proliferation assay (IC50) Human Kit exon 9; cited from earlier work
Solubility = format: physicochemical
Protocol: For detailed procedure refer to patent WO/2008/098949. AB1010 is also manufactured by AB Science, S.A. (France), or by Prestwick Chemical, Inc. (France). The chemical structure was confirmed by nuclear magnetic resonance, mass spectrometry, ultraviolet and infrared spectrometry, and elemental analysis. […] The compound, a white powder, was prepared according to the art to provide tablets. Tablet containing masitinib was used for each experiment.

[3] = Kaplan-Meier estimate, listed as masitinib

In the case of `Cc1ccc(NC(=O)c2ccc(CN3CCN(C)CC3)cc2)cc1Nc1nc(-c2cccnc2)cs1` [Compound 066, 4-(4-methyl-piperazin-1-ylmethyl)-N-[4-methyl-3-(4-pyridin-3-yl-thiazol-2-ylamino)-phenyl]-benzamide], the “patients who never benefited from treatment (early resistance)” value ([1]; 1/30 patient) is reported as 3.3%, the “OS rates (%) [95% CI] 12 months” value [1, 3] is reported as 96.7% and the “OS rates (%) [95% CI] 24 months” value [1, 3] is reported as 89.9%. The “OS rates (%) [95% CI] 36 months” value [1, 3] was 89.9%, the “PFS rate (%) [95% CI] 6 months” value [1, 3] was 88.9% and the “PFS rate (%) [95% CI] 12 months” value [1, 3] was 76.8%. The “PFS rate (%) [95% CI] 24 months” value [1, 3] was 59.7% and 60%, the “PFS rate (%) [95% CI] 36 months” value [1, 3] was 55.4% and 55% and the “PFS Median” value ([1]; Kaplan-Meier, ITT N = 30) was 41.3 months. The “Metabolic response CMR, At 1 month” value ([1]; N = 13, FDG-PET, complete metabolic response) was 0 (0.0%) n (%), the “Metabolic response CMR + PMR, At 1 month” value ([1]; N = 13, FDG-PET, metabolic response rate) was 9 (69.2%) n (%) and the “Metabolic response PMR, At 1 month” value ([1]; N = 13, FDG-PET, partial metabolic response, listed as masitinib) was 9 (69.2%) n (%). For the same molecule, the “Metabolic response SMD, At 1 month” value ([1]; N = 13, FDG-PET, stable metabolic disease, listed as masitinib) was 4 (30.8%) n (%), the “Metabolic response CMR, At 2 months” value ([1]; N = 14, FDG-PET, complete metabolic response, listed as masitinib) was 3 (21.4%) n (%) and the “Metabolic response CMR + PMR, At 2 months” value ([1]; N = 14, FDG-PET, metabolic response rate, listed as masitinib) was 12 (85.7%) n (%). For the same molecule, the “Metabolic response PMR, At 2 months” value ([1]; N = 14, FDG-PET, partial metabolic response, listed as masitinib) was 9 (64.2%) n (%), the “Metabolic response SMD, At 2 months” value ([1]; N = 14, FDG-PET, stable metabolic disease, listed as masitinib) was 2 (14.3%) n (%) and the “Response (RECIST) CR, 2 months” value ([1]; N = 30, complete response) was 0 (0.0%) n (%). For the same molecule, the “Response (RECIST) CR, Best Response” value ([1]; N = 30, complete response, listed as masitinib) was 1 (3.3%) n (%), the “Response (RECIST) CR + PR + SD, 2 months” value ([1]; N = 30, disease control rate) was 29 (96.7%) n (%) and the “Response (RECIST) CR + PR + SD, Best Response” value ([1]; N = 30, disease control rate, listed as masitinib) was 29 (96.7%) n (%). The “Response (RECIST) CR + PR, 2 months” value ([1]; N = 30, overall response rate) was 6 (20.0%) n (%), the “Response (RECIST) CR + PR, Best Response” value ([1]; N = 30, overall response rate, listed as masitinib) was 16 (53.3%) n (%) and the “Response (RECIST) PR, Best Response” value ([1]; N = 30, partial response, listed as masitinib) was 15 (50.0%) n (%). The “Response (RECIST) PD, Best Response” value ([1]; N = 30, progressive disease, listed as masitinib) was 1 (3.3%) n (%), the “Response (RECIST) SD, Best Response” value ([1]; N = 30, stable disease, listed as masitinib) was 13 (43.3%) n (%) and the “tumour response according to changes in tumour size (RECIST), evaluable patients” value ([1]; after 2 months of masitinib) was 20%. The “tumour response according to metabolic response using FDG-PET” value ([1]; after 2 months of masitinib) was 86%, the “tumour response in patients assessed with DCE-US” value ([1]; after 2 months of masitinib) was 75% and the “patients with confirmed PR after 2 months, Simon first stage” value ([1]; first 14 patients) was 4/14. For the same molecule, the “Median time to first objective response” value ([1]; range: 0.8-23.8 months) was 5.6 months, the “% apoptosis (cells in apoptosis)” value [2] was “More than 45%” and the IC50 (Human Kit exon 9) was 100 nM. For the same molecule, the “solubility in 0.1 M HCl” value (Solubility; 0.1 M HCl) was “freely soluble”, the “solubility in 0.1 M NaOH” value (Solubility; 0.1 M NaOH) was “practically insoluble” and the solubility in dimethylsulfoxide (Solubility; dimethylsulfoxide) was “freely soluble”. The solubility in ethanol (Solubility; ethanol) was “slightly soluble”, the solubility in n-hexane (Solubility; n-hexane) was “practically insoluble” and the “solubility in propylene glycol” value (Solubility; propylene glycol) was “slightly soluble”. The solubility in water (Solubility; water) was “soluble”.
